Where a SMILES comes first, the peptide text is derived from it. The star is where a group is joined. 5FAM = O=C1OC2(c3ccc(O)cc3Oc3cc(O)ccc32)c2ccc(C(=O)*)cc21
Test system: MM6 cell line
Conditions: 5(6)-FAM-labeled peptides 10 μM, MM6 cells, 2 h, flow cytometry FITC channel, trypan blue quenching

| Structure (SMILES) | Internalization (cellular uptake) profile |
| --- | --- |
| CC[C@H](C)[C@H](NC(=O)[C@H](CCCCN)NC(=O)[C@H](CCC(=O)O)NC(=O)[C@H](Cc1ccc(O)cc1)NC(=O)[C@@H]1CCCN1C(=O)[C@H](CC(=O)O)NC(=O)c1ccc2c(c1)C(=O)OC21c2ccc(O)cc2Oc2cc(O)ccc21)C(=O)NCC(=O)N[C@@H](C)C(=O)N[C@@H](CCC(=O)O)C(=O)N[C@@H](CC(C)C)C(=O)N[C@H](C(=O)N[C@@H](CCCCN)C(N)=O)C(C)C [Grol2 (63–78)] | highest cell internalization among MHC II binding epitopes |
| C[C@H](NC(=O)[C@H](C)NC(=O)[C@H](CCCCN)NC(=O)[C@H](CCCCN)NC(=O)[C@H](C)NC(=O)[C@@H]1CCCN1C(=O)[C@H](C)NC(=O)[C@H](CCCCN)NC(=O)c1ccc2c(c1)C(=O)OC21c2ccc(O)cc2Oc2cc(O)ccc21)C(=O)N[C@@H](C)C(=O)N[C@@H](CCCCN)C(N)=O [HBHA (185–194)] (5FAM-KAPAKKAAAK-NH2) | significant cellular uptake |
| CC[C@H](C)[C@H](NC(=O)[C@H](C)NC(=O)[C@H](CCC(N)=O)NC(=O)[C@H](Cc1c[nH]c2ccccc12)NC(=O)[C@H](CC(C)C)NC(=O)[C@H](CCCCN)NC(=O)[C@H](CCCCN)NC(=O)[C@@H](NC(=O)[C@H](Cc1ccc(O)cc1)NC(=O)[C@H](C)NC(=O)c1ccc2c(c1)C(=O)OC21c2ccc(O)cc2Oc2cc(O)ccc21)[C@@H](C)O)C(=O)N[C@@H](CCCNC(=N)N)C(=O)N[C@@H](C)C(=O)N[C@@H](CCC(N)=O)C(=O)N[C@@H](CC(=O)O)C(=O)N[C@H](C(N)=O)C(C)C [RpfA (377–391)] (5FAM-AYTKKLWQAIRAQDV-NH2) | weak internalization profile |
| CC(C)[C@H](NC(=O)[C@H](C)NC(=O)[C@@H](NC(=O)CNC(=O)[C@H](C)NC(=O)c1ccc2c(c1)C(=O)OC21c2ccc(O)cc2Oc2cc(O)ccc21)[C@@H](C)O)C(=O)N[C@@H](CCC(N)=O)C(=O)N[C@@H](CC(=O)O)C(=O)N[C@@H](CO)C(=O)N[C@@H](CCCNC(=N)N)C(=O)N[C@@H](CO)C(=O)N[C@@H](Cc1c[nH]cn1)C(=O)N[C@H](C(=O)N[C@@H](Cc1ccc(O)cc1)C(=O)N[C@@H](C)C(=O)N[C@@H](Cc1c[nH]cn1)C(N)=O)C(C)C [Rv1733c (63–77)] (5FAM-AGTAVQDSRSHVYAH-NH2) | weak internalization profile |
